Like-named read-outs stand apart in the source and are kept apart here.
How the values were obtained:
PBMCs [1] = experiment: LPS-induced TNFα/IL-8 release in PBMC cells; type: cell-based; settings: Homo sapiens, LPS-stimulated PBMCs
Description: Peripheral blood mononuclear cells (PBMCs) from healthy subjects are separated from whole blood using a density gradient (Lymphoprep, Axis-Shield Healthcare). The PBMCs are seeded in 96 well plates and treated with compounds at the desired concentration for 2 hours before addition of 1 ng/mL LPS (Escherichia Coli 0111:B4 from Sigma Aldrich) for 24 hours under normal tissue culture conditions (37° C., 5% CO2). The supernatant is harvested for determination of IL-8 and TNFα concentrations by sandwich ELISA (Duo-set, R&D systems) and read on the fluorescence microplate reader (Varioskan® Flash, ThermoFisher Scientific). The concentration at 50% inhibition (IC50) of IL-8 and TNFα production is calculated from the dose response curve.

c-Src = c-Src (Homo sapiens (Human), UniProt P12931); experiment: c-Src enzyme inhibition (Z-LYTE FRET); type: biochemical
c-Src, sequence (P12931 whole entry, looked up): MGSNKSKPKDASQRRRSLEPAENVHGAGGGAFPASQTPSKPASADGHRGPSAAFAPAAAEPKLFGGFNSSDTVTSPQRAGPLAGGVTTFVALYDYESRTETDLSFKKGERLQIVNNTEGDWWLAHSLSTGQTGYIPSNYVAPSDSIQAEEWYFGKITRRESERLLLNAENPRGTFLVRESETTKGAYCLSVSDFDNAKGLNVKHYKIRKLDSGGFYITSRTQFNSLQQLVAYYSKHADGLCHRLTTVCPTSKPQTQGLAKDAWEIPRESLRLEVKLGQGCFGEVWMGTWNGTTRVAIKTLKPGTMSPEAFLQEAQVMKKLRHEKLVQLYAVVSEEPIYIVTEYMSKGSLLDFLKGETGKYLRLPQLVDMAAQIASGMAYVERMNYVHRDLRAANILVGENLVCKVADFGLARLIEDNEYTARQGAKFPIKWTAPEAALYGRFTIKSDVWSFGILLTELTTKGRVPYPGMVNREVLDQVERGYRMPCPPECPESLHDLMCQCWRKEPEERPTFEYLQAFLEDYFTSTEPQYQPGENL
Description: (§1) The enzyme inhibitory activities of compounds disclosed herein are determined by FRET using synthetic peptides labelled with both donor and acceptor fluorophores (Z-LYTE, Invitrogen Ltd., Paisley, UK).
(§2) The inhibitory activities of compounds of the invention against c-Src and Syk enzymes (Invitrogen), are evaluated in a similar fashion to that described hereinabove. The relevant enzyme (3000 ng/mL or 2000 ng/mL respectively, 2.5 μL) is incubated with the test compound (either 4 μg/mL, 0.4 μg/mL, 0.04 μg/mL, or 0.004 μg/mL, 2.5 μL each) for 2 hr at RT. The FRET peptides (8 μM, 2.5 μL), and appropriate ATP solutions (2.5 μL, 800 μM for c-Src, and 60 μM ATP for Syk) are then added to the enzymes/compound mixtures and incubated for 1 hr. Development reagent (protease, 5 μL) is added for 1 hr prior to detection in a fluorescence microplate reader (Varioskan® Flash, ThermoFisher Scientific).
(§3) In all cases, the site-specific protease cleaves non-phosphorylated peptide only and eliminates the FRET signal. Phosphorylation levels of each reaction are calculated using the ratio of coumarin emission (donor) over fluorescein emission (acceptor), for which high ratios indicate high phosphorylation and low ratios indicate low phosphorylation levels. The percentage inhibition of each reaction is calculated relative to non-inhibited control and the 50% inhibitory concentration (IC50 value) is then calculated from the concentration-response curve.

[2] = molecular target: p38 MAPKα isoform (MAPK14) (Homo sapiens (Human), UniProt Q16539); experiment: p38 MAPKα enzyme inhibition (Z-LYTE FRET); type: biochemical
p38 MAPKα isoform (MAPK14), sequence (Q16539 whole entry, canonical isoform): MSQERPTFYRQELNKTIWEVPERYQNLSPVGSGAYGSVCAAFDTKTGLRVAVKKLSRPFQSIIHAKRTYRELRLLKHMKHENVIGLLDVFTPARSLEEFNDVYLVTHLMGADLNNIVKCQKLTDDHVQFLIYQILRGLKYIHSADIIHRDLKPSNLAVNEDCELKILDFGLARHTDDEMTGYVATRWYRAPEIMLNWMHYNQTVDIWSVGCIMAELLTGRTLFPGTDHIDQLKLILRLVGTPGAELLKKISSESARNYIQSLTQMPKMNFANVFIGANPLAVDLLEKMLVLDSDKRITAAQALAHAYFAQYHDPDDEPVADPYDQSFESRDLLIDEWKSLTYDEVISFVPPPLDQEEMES
Description: as §1
The following two assay variants can be used for determination of p38 MAPKα inhibition.
The inhibitory activities of test compounds against the p38 MAPKα isoform (MAPK14: Invitrogen), are evaluated indirectly by determining the level of activation/phosphorylation of the down-stream molecule, MAPKAP-K2. The p38 MAPKα protein (80 ng/mL, 2.5 μL) is mixed with the test compound (2.5 μL of either 4 μg/mL, 0.4 μg/mL, 0.04 μg/mL or 0.004 μg/mL) for 2 hr at RT. […] The mixture is incubated for 1 hr at RT. Development reagent (protease, 5 μL) is added for 1 hr prior to detection in a fluorescence microplate reader (Varioskan® Flash, ThermoFisher Scientific).
This method follows the same steps as Method 1 above, but utilises a higher concentration of the p38 MAPKα protein (2.5 μL of 200 ng/mL protein instead of 2.5 μL of 80 ng/mL protein) for mixing with the test compound.
as §3

GSK 3α = GSK 3α (Homo sapiens (Human), UniProt P49840); experiment: GSK 3α enzyme inhibition (Z-LYTE FRET); type: biochemical; settings: read-out: IC50 Values for Enzyme Inhibition GSK3α
GSK 3α, sequence (P49840 whole entry): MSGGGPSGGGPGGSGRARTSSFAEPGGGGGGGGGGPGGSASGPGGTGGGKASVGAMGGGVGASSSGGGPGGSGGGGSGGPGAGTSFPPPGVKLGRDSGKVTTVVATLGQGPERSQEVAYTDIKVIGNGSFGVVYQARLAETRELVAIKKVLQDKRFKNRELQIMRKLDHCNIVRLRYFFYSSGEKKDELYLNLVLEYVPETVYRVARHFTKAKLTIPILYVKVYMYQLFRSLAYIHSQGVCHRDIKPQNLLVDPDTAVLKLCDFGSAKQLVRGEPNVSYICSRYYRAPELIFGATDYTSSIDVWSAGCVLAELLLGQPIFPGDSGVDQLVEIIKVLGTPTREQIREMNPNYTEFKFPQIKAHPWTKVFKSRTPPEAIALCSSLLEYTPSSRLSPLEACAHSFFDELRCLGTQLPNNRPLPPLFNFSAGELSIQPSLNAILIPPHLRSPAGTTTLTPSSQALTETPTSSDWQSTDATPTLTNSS
Description: as §1
The following two assay variants can be used for determination of GSK 3α inhibition.
The inhibitory activities of compounds of the invention against the GSK 3α enzyme isoform (Invitrogen), are evaluated by determining the level of activation/phosphorylation of the target peptide. The GSK3-α protein (500 ng/mL, 2.5 μL) is mixed with the test compound (2.5 μL at either 4 μg/mL, 0.4 μg/mL, 0.04 μg/mL, or 0.004 μg/mL) for 2 hr at RT. The FRET peptide (8 μM, 2.5 μL), which is a phosphorylation target for GSK3α, and ATP (40 μM, 2.5 μL) are then added to the enzyme/compound mixture and the resulting mixture incubated for 1 hr. Development reagent (protease, 5 μL) is added for 1 hr prior to detection in a fluorescence microplate reader (Varioskan® Flash, ThermoFisher Scientific).
as §3
This method follows the same steps as Method 1 above, but utilises a shorter period of mixing of the test compound (105 minutes instead of 2 hours) with the GSK3-α protein.

HT29 cells = experiment: IL-1β-induced IL-8 release in HT29 cells; type: cell-based; settings: Homo sapiens, HT-29, IL-1β-stimulated HT29 cells, read-out: IC50 Values for Inhibition of Cytokine Release HT29 cells IL-8
Description: HT29 cells, a human colon adenocarcinoma cell line, are plated in a 96 well plate (24 hrs) and pre-treated with compounds at the desired concentration for 2 hours before addition of 5 ng/mL of IL-1β (Abcam) for 24 hours. Supernatants are harvested for IL-8 quantification by Sandwich ELISA (Duo-set, R&D System). The IC50 is determined from the dose response curve.

Syk = Syk (Homo sapiens (Human), UniProt P43405); experiment: Syk enzyme inhibition (Z-LYTE FRET); type: biochemical
Description: as §1, §2, §3

PBMCs [3] = experiment: IL-2 and IFN gamma release in CD3/CD28 stimulated PBMC cells; type: cell-based; settings: Homo sapiens, IL-2, read-out: IC50 Values for Inhibition of Cytokine Release PBMCs IL-2
Description: PBMCs from healthy subjects are separated from whole blood using a density gradient (Lymphoprep, Axis-Shield Healthcare). Cells are added to a 96 well plate pre-coated with a mixture of CD3/CD38 monoclonal antibodies (0.3 μg/mL eBioscience and 3 μg/mL BD Pharmingen respectively). Compound at the desired concentration is then added to the wells and the plate left for 3 days under normal tissue culture conditions. Supernatants are harvested and IL-2 and IFN gamma release determined by Sandwich ELISA (Duo-set, R&D System). The IC50 is determined from the dose response curve.

d-U937 cells = experiment: LPS-induced TNFα/IL-8 release in d-U937 cells; type: cell-based; settings: Homo sapiens, dU937, LPS-stimulated d-U937 cells
Description: U937 cells, a human monocytic cell line, are differentiated to macrophage-type cells by incubation with phorbol myristate acetate (PMA; 100 ng/mL) for 48 to 72 hr. Cells are pre-incubated with final concentrations of test compound for 2 hr and are then stimulated with 0.1 μg/mL of LPS (from E. Coli: O111:B4, Sigma) for 4 hr. The supernatant is collected for determination of TNFα and IL-8 concentrations by sandwich ELISA (Duo-set, R&D systems). The inhibition of TNFα production is calculated as a percentage of that achieved by 10 μg/mL of BIRB796 at each concentration of test compound by comparison against vehicle control. The relative 50% effective concentration (REC50) is determined from the resultant concentration-response curve. The inhibition of IL-8 production is calculated at each concentration of test compound by comparison with vehicle control. The 50% inhibitory concentration (IC50) is determined from the resultant concentration-response curve.

[4] = IL-8, read-out: IC50 Values for Inhibition of Cytokine Release PBMCs IL-8
[5] = IL-8, read-out: IC50 Values for Inhibition of Cytokine Release dU937 cells IL-8
[6] = TNFα, method describes REC50 relative to BIRB796, read-out: IC50 Values for Inhibition of Cytokine Release dU937 cells TNFα
[7] = TNFα, read-out: IC50 Values for Inhibition of Cytokine Release PBMCs TNFα

| SMILES | IC50 (PBMCs [1]; [4]) | IC50 (c-Src) | IC50 [2] | IC50 (GSK 3α) | IC50 (HT29 cells) | IC50 (Syk) | IC50 (PBMCs [3]) | IC50 (d-U937 cells; [5]) | IC50 (d-U937 cells; [6]) | IC50 (PBMCs [1]; [7]) |
| --- | --- | --- | --- | --- | --- | --- | --- | --- | --- | --- |
| Cc1ccc(-n2nc([Si](C)(C)C)cc2NC(=O)Nc2ccc(Oc3ccnc(Nc4ccc5c(c4)NC(=O)C5)n3)c3ccccc23)cc1 [Example 10, 1-(4-((2-((2-Oxoindolin-6-yl)amino)pyrimidin-4-yl)oxy)naphthalen-1-yl)-3-(1-(p-tolyl)-3-(trimethylsilyl)-1H-pyrazol-5-yl)urea] | 0.0035 µM | 0.019 µM | 0.541 µM | > 10 µM | 0.005 µM | 0.99 µM | 0.196 µM | 0.002 µM | 0.0016 µM |  |
| C[Si](C)(C)c1cc(NC(=O)Nc2ccc(Oc3ccnc(Nc4ccccc4)n3)c3ccccc23)n(-c2ccc(OCCN3CCOCC3)cc2)n1 [Example 3, 1-(1-(4-(2-Morpholinoethoxy)phenyl)-3-(trimethylsilyl)-1H-pyrazol-5-yl)-3-(4-((2-(phenylamino)pyrimidin-4-yl)oxy)naphthalen-1-yl)urea] | 0.0094 µM | 0.227 µM | 0.347 µM | 4.99 µM | 0.0134 µM | > 1 µM | 0.0768 µM | 0.018 µM | 0.002 µM |  |
| Cc1ccc(-n2nc([Si](C)(C)C)cc2NC(=O)Nc2ccc(Oc3ccnc(Nc4ccc5[nH]ncc5c4)n3)c3ccccc23)cc1 [Example 7, 1-[4-[2-(1H-Indazol-5-ylamino)pyrimidin-4-yl]oxy-1-naphthyl]-3-[2-(p-tolyl)-5-trimethylsilyl-pyrazol-3-yl]urea] | 0.012 µM | 0.045 µM | 0.38 µM | > 10 µM | 0.0166 µM | 0.673 µM | 0.0475 µM | 0.0086 µM | 0.0019 µM | 0.0033 µM |
| COc1cc(Nc2nccc(Oc3ccc(NC(=O)Nc4cc([Si](C)(C)C)nn4-c4ccc(C)cc4)c4ccccc34)n2)cc(OCCN2CCOCC2)c1 [Example 13, 1-(4-((2-((3-Methoxy-5-(2-morpholinoethoxy)phenyl)amino)pyrimidin-4-yl)oxy)naphthalen-1-yl)-3-(1-(p-tolyl)-3-(trimethylsilyl)-1H-pyrazol-5-yl)urea] | 0.0023 µM | 0.17 µM | > 1 µM | 5.64 µM | 0.0043 µM | 0.106 µM | 0.0039 µM | 0.0014 µM | 0.0011 µM |  |
| Cc1ccc(-n2nc([Si](C)(C)C)cc2NC(=O)Nc2ccc(Oc3ccnc(Nc4cccc(OCCN5CCOCC5)c4)n3)c3ccccc23)cc1 [Example 6, 1-(4-((2-((3-(2-Morpholinoethoxy)phenyl)amino)pyrimidin-4-yl)oxy)naphthalen-1-yl)-3-(1-(p-tolyl)-3-(trimethylsilyl)-1H-pyrazol-5-yl)urea] | 0.0048 µM | 0.01 µM | 0.314 µM | > 2 µM | 0.0087 µM | 0.007 µM | 0.0157 µM | 0.0018 µM | 0.0015 µM | 0.0007 µM |
| COc1ccc(-n2nc([Si](C)(C)C)cc2NC(=O)Nc2ccc(Oc3ccnc(Nc4ccccc4)n3)c3ccccc23)cn1 [Example 2, 1-(1-(6-Methoxypyridin-3-yl)-3-(trimethylsilyl)-1H-pyrazol-5-yl)-3-(4-((2-(phenylamino)pyrimidin-4-yl)oxy)naphthalen-1-yl)urea] | 0.0084 µM | 0.093 µM | 0.329 µM | 3.24 µM | 0.0121 µM | > 1 µM | 0.128 µM | 0.0026 µM | 0.0018 µM | 0.0027 µM |
| Cc1ccc(-n2nc([Si](C)(C)C)cc2NC(=O)Nc2ccc(Oc3ccnc(Nc4ccccc4)n3)c3ccccc23)cc1 [Example 1, 1-(4-((2-(Phenylamino)pyrimidin-4-yl)oxy)naphthalen-1-yl)-3-(1-(p-tolyl)-3-(trimethylsilyl)-1H-pyrazol-5-yl)urea] | 0.0142 µM | 0.077 µM | 0.152 µM | > 10 µM | 0.0156 µM | > 1 µM | 0.274 µM | 0.0046 µM | 0.0025 µM | 0.0028 µM |
| Cc1ccc(-n2nc([Si](C)(C)C)cc2NC(=O)Nc2ccc(Oc3ccnc(Nc4cc(C)c5[nH]ncc5c4)n3)c3ccccc23)cc1 [Example 9, 1-(4-((2-((7-Methyl-1H-indazol-5-yl)amino)pyrimidin-4-yl)oxy)naphthalen-1-yl)-3-(1-(p-tolyl)-3-(trimethylsilyl)-1H-pyrazol-5-yl)urea] | 0.0034 µM | 0.135 µM | 0.358 µM | > 10 µM | 0.0048 µM | 0.52 µM | 0.0412 µM | 0.0026 µM | 0.0012 µM |  |
